ChEMBL document CHEMBL1133689, “7-Chloro-4,5-dihydro-8-(1,2,4-triazol-4-yl)-4-oxo-1,2,4-triazolo[1, 5-a]quinoxaline-2-carboxylates as novel highly selective AMPA receptor antagonists” (J Med Chem, 2000)

Experiments:
[1] = species: Mus musculus; test: Ability to inhibit depolarizations induced by AMPA in mouse cortical wedge preparations; type: functional, organism-based
[2] = species: Mus musculus; test: Ability to inhibit depolarizations induced by NMDA in mouse cortical wedge preparations.; type: functional, organism-based
[3] = biological target: Glutamate receptor ionotropic, kainate (Rattus norvegicus) (UniProt P22756+Q01812+P42260+P42264+Q63273); test: Compound was evaluated for inhibition of binding of [3H]KA to specific binding at Ka receptor in rat cortical membrane at 100 uM; type: cell membranes
[4] = biological target: Glutamate receptor ionotropic, AMPA (Rattus norvegicus, UniProt P19490+P19491+P19492+P19493); test: Compound was evaluated for inhibition of binding of [3H]AMPA to specific binding at Ionotropic glutamate receptor AMPA in rat cortical membrane; type: cell membranes
[5] = Compound was evaluated for inhibition of binding of [3H]glycine to specific binding at glycine receptor in rat cortical membrane at 100 uM; type: cell membranes
[6] = Compound was evaluated for inhibition of binding of [3H]glycine to specific binding at glycine receptor in rat cortical membrane; type: cell membranes
[7] = biological target: Glutamate receptor ionotropic, kainate; test: Compound was evaluated for inhibition of binding of [3H]KA to specific binding at Ka receptor in rat cortical membrane; type: cell membranes

Row | SMILES | IC50 [1] [µM] | IC50 [2] [µM] | inhibition [3] [%] | Ki [4] [µM] | inhibition [5] [%] | Ki [6] [µM] | IC50 [7] [µM]
1 | CCOC(=O)c1nc2c(O)nc3cc(Cl)c(-n4cnnc4)cc3n2n1 | 15 | 100 | 42 | 0.7 | 15 |  | 
2 | O=C(O)c1cc(O)c2c(Cl)cc(Cl)cc2n1 | 52 | 4.7 | 8 |  |  | 0.09 | 
3 | CCOC(=O)c1nc2c(O)nc3cc(Cl)c(-n4ccnc4)cc3n2n1 | 22 | > 100 | 24 | 2.3 | 39 |  | 
4 | O=C(O)c1nc2c(O)nc3cc(Cl)c(-n4ccnc4)cc3n2n1 |  |  |  |  | 45 |  | 
5 | O=C(O)c1nc2c(=O)[nH]c3cc(Cl)c(-n4ccnc4)cc3n2n1 |  |  |  | 0.98 |  |  | 16.8
6 | O=C(O)c1nc2c(O)nc3cc(Cl)c([N+](=O)[O-])cc3n2n1 | 75 | 75 | 41 |  |  | 2.2 | 

The next lines start with the values.

Row | IC50 [1] [µM] | IC50 [2] [µM] | inhibition [3] [%] | Ki [4] [µM] | inhibition [5] [%] | Ki [6] [µM] | IC50 [7] [µM] | SMILES
7 | 0.2 |  |  |  | 3 |  |  | NS(=O)(=O)c1cccc2c1c([N+](=O)[O-])cc1nc(O)c(O)nc12 [NBQX]
8 | 2.3 | 46 |  | 0.14 |  | 33.5 | 11.6 | O=C(O)c1nc2c(O)nc3cc(Cl)c(-n4cnnc4)cc3n2n1 [TQX-173]
